According to patent publication US11400083B2, “CXCR4 antagonists with amino acid skeleton, preparation therefor and biomedical use thereof” (Tsinghua University, priority 2017, dated 2022):

Assays:
[1] = target: T1, CXCR4 (Homo sapiens, UniProt P61073); experiment: Inhibition of intracellular calcium mobilization (SupT1 cells, SDF-1α, Fluo-4); format: cell-based; settings: 50 nM SDF-1α
Experimental: 3. Experimental method: the cell line used in this assay was SupT1. Prior to the experiment, the cells were collected and washed with an experimental buffer (an HBSS buffer containing 20 mM HEPES), and then incubated with a buffer containing 4 μM Fluo-4 and 1 mM probenecid sodium for 30 min at 37° C., after which the residual dye was washed away, and the cells were suspended to a concentration of 2×10^6 cells/ml. Afterwards, 200 μl of the cell suspension was taken and added to a black 96-well plate, and absorption values of the cells at 494 nmEX/516 nmEM were recorded. Subsequently, different concentrations of compound were added and mixed uniformly, and the baseline was recorded. Thereafter, 50 nM of the SDF-1α was added and mixed uniformly. Signals of calcium ions were recorded, and the differences in fluorescence intensity between a group without addition of the compound and groups added with different concentrations of the compound were observed. 4.

[2] = Cytotoxicity assay (CellTiter 96, 72 h); format: cell-based; settings: human; HEK293 cells, 72 hours incubation
Experimental: 1. Experimental method: the experiment was carried out using HEK293 cell line. The HEK293 cells cultured in DMEM medium (containing 10% fetal bovine serum, 100 IU penicillin and 0.1 mg/ml streptomycin) were trypsinized, counted, and plated in a 96-well plate with each well containing 100 μl suspension and including 3×10^3 cells in total. After culturation in a constant-temperature incubator containing 5% CO2 at 37° C. overnight, different concentrations of the compound were added. After 72 hours of incubation in total, 20 μl CellTiter 96 was added to further incubate for 1 to 4 hours, and then an absorption value at 490 nm was measured on a microplate reader. The changes in cell viability prior to and subsequent to the addition of the compound were observed by comparing the values of the blank control group and the experimental group. 2.

[3] = target: T1, CXCR4; experiment: Inhibition of CXCR4 induced cell migration (SupT1 cells, SDF-1α, transwell); format: cell-based; settings: 2 nM SDF-1α, concentration-dependent, FIG. 1
Experimental: 1. Experimental method: the assay on the CXCR4 induced cell migration was detected using SupT1 cell line which naturally expresses the CXCR4. SupT1 cells cultured and suspended in RPMI 1640 (containing 10% fetal bovine serum, 100 IU penicillin and 0.1 mg/ml streptomycin) were collected and then washed with RPMI 1640 containing 0.5% BSA, after which the cells are counted and suspended to a concentration of 3.0×10^7 cells/ml, and then uniformly mixed with different concentrations of compound. Then, 75 μl of the obtained mixture was taken and added to a tranwell insert, and incubated at 37° C. for 30 min. […] After incubation at 37° C. for 3 hours, the tranwell insert was removed, and 40 μl of CellTiter 96 (Promega) was added to each cell of the lower culture plate. After 1 to 4 hours of incubation, absorption values at 490 nm were detected. The experimental results of each group were obtained by at least three independent experiments, and the inhibition curve was plotted by the GraphPad software. 2.

[4] = target: T1, CXCR4; experiment: Binding affinity assay on CXCR4 receptor protein (inhibition of 12G5 monoclonal antibody binding, CHO cells stably transfected with CXCR4); design: expressed in transfected cells; host or cells: CHO cells, stably transfected (G418 selection); settings: 40 min; 0.1 μM compound; inhibition of 12G5 antibody binding to CXCR4 on CHO-CXCR4 cells; read-out: Inhibition ratio interval of compounds at 0.1 μM
Experimental: 3. Experimental method: the cell line used for the affinity activity assay of the CXCR4 was a CHO cell line constructed in vitro and stably transfected with CXCR4. The CHO cell line cultured in DMEM medium (containing 10% fetal bovine serum, 100 IU penicillin, 0.1 mg/ml streptomycin and 0.2 mg/ml G418) was trypsinized, washed, counted, and then suspended in an FACS buffer (PBS containing 0.5% BSA and 0.05% NaN3), followed by being plated in a 96-well plate. Each cell contains 100 μl of the reaction system, which includes 5×10^5 cells, 250 ng/ml 12G5 monoclonal antibody and different concentrations of compound for detection. After incubated on ice for 40 min and washed with the FACS buffer, the reaction system was added with the secondary antibody (anti-mouse FITC-labeled IgG) for further incubation on ice for 30 min and then washed twice with the FACS buffer. Absorption values at 485 nmEX/535 nmEM were measured on a microplate reader (PerkinElmer), and fluorescence intensities were recorded. For each compound, a percentage of the compound that inhibits the binding of the 12G5 monoclonal antibody to the receptor CXCR4, i.e. a binding inhibition ratio at 0.1 μM, was calculated. 4. […] The inhibition ratio of the compounds is divided into the following intervals: 75% to 100% for A, 50% to 74% for B, 25% to 49% for C, and 0 to 24% for D.

T1 sequence (P61073 whole entry): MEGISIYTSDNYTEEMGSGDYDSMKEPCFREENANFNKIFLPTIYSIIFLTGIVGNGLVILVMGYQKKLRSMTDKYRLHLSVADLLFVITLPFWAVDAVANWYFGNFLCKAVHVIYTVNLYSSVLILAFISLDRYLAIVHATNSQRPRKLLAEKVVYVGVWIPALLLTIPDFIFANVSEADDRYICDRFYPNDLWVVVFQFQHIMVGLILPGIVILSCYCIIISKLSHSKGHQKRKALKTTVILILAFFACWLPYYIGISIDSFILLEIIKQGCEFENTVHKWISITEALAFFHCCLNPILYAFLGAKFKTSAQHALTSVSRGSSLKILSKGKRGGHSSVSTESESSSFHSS

Row | Structure (SMILES) | Inhibition of signal of calcium mobilization ([1]; compound at 1.0 μM, FIG. 3) | IC50 at 72 h [2] | Inhibition of CXCR4 induced cell migration [3] | Inhibition of signal of calcium mobilization ([1]; compound at 0.2 μM, FIG. 2) | inhibition at 0.1 µM [4]
1 | c1cc(CN2CCCNCCNCCCNCC2)ccc1CN1CCCNCCNCCCNCC1 [AMD3100, plerixafor, reference compound] | fails to inhibit |  |  |  | 
2 | N=C(N)NCCC[C@H](NCc1ccccn1)C(=O)NCc1ccc(CNCCCNC2CCCCC2)cc1 [Compound 1] |  | > 50 µM | significant inhibiting ability | completely inhibit | 75 to 100%
3 | N=C(N)NCCC[C@H](NC(=O)c1ccc(F)cc1)C(=O)NCc1ccc(CNCCCNC2CCCCC2)cc1 [Compound 2] |  | > 50 µM |  |  | 50 to 74%
4 | N=C(N)NCCC[C@H](NCc1ccccn1)C(=O)NCc1ccccc1 [Compound 3] |  |  |  |  | 0 to 24%
5 | N=C(N)NCCC[C@H](NCc1ccccn1)C(=O)NCc1ccc(CNC2CCCCC2)cc1 [Compound 4] |  | > 50 µM |  |  | 0 to 24%
6 | N=C(N)NCCC[C@H](N)C(=O)NCc1ccc(CNCCCNC2CCCCC2)cc1 [Compound 5] |  | > 50 µM |  |  | 25 to 49%
7 | N=C(N)NCCC[C@@H](NCc1ccccn1)C(=O)NCc1ccc(CNCCCNC2CCCCC2)cc1 [Compound 6] |  | > 50 µM |  |  | 50 to 74%
8 | N=C(N)NCCC[C@H](NC(=O)C1CCC(F)(F)CC1)C(=O)NCc1ccc(CNCCCNC2CCCCC2)cc1 [Compound 7] |  | > 50 µM |  |  | 50 to 74%
9 | N=C(N)NCCC[C@H](NCc1ccc(F)cc1)C(=O)NCc1ccc(CNCCCNC2CCCCC2)cc1 [Compound 8] |  | > 50 µM |  |  | 50 to 74%
10 | CN(C)c1ccc(CN[C@@H](CCCNC(=N)N)C(=O)NCc2ccc(CNCCCNC3CCCCC3)cc2)cc1 [Compound 9] |  | > 50 µM |  |  | 75 to 100%
11 | N=C(N)NCCC[C@H](NCc1cccc2ccccc12)C(=O)NCc1ccc(CNCCCNC2CCCCC2)cc1 [Compound 10] |  | > 50 µM |  |  | 50 to 74%
12 | N=C(N)NCCC[C@H](NCc1ccc(-c2ccccc2)cc1)C(=O)NCc1ccc(CNCCCNC2CCCCC2)cc1 [Compound 11] |  | > 50 µM |  |  | 50 to 74%
13 | N=C(N)NCCC[C@H](NCc1cc(C(F)(F)F)cc(C(F)(F)F)c1)C(=O)NCc1ccc(CNCCCNC2CCCCC2)cc1 [Compound 12] |  | > 50 µM |  |  | 0 to 24%
14 | N=C(N)NCCC[C@H](NCc1ncc[nH]1)C(=O)NCc1ccc(CNCCCNC2CCCCC2)cc1 [Compound 13] |  | > 50 µM |  |  | 50 to 74%
15 | N=C(N)NCCC[C@H](NC1CCCc2cccnc21)C(=O)NCc1ccc(CNCCCNC2CCCCC2)cc1 (some centres unmarked) [Compound 14] |  |  |  |  | 0 to 24%
16 | N=C(N)NCCC[C@H](NC1CCCCC1)C(=O)NCc1ccc(CNCCCNC2CCCCC2)cc1 [Compound 15] |  | > 20 µM |  |  | 50 to 74%
17 | N=C(N)NCCC[C@H](NCC1CCCCC1)C(=O)NCc1ccc(CNCCCNC2CCCCC2)cc1 [Compound 16] |  | > 50 µM |  |  | 75 to 100%

Row | Structure (SMILES) | Inhibition of signal of calcium mobilization ([1]; compound at 1.0 μM, FIG. 3) | IC50 at 72 h [2] | Inhibition of CXCR4 induced cell migration [3] | Inhibition of signal of calcium mobilization ([1]; compound at 0.2 μM, FIG. 2) | inhibition at 0.1 µM [4]
18 | NCCCC[C@H](NCc1ccccn1)C(=O)NCc1ccc(CNCCCNC2CCCCC2)cc1 [Compound 17] |  | > 50 µM |  |  | 75 to 100%
19 | CC(C)NCCCC[C@H](NCc1ccccn1)C(=O)NCc1ccc(CNCCCNC2CCCCC2)cc1 [Compound 18] |  | > 50 µM |  |  | 75 to 100%
20 | O=C(NCc1ccc(CNCCCNC2CCCCC2)cc1)[C@H](CCCCNC1CCCCC1)NCc1ccccn1 [Compound 19] |  | > 50 µM |  |  | 75 to 100%
21 | O=C(NCc1ccc(CNCCCNC2CCCCC2)cc1)[C@H](CCCNC1CCCCC1)NCc1ccccn1 [Compound 20] |  | > 50 µM |  |  | 50 to 74%
22 | O=C(NCc1ccc(CNCCCNC2CCCCC2)cc1)[C@H](Cc1c[nH]cn1)NCc1ccccn1 [Compound 21] |  | > 50 µM |  |  | 75 to 100%
23 | O=C(O)C[C@H](NCc1ccccn1)C(=O)NCc1ccc(CNCCCNC2CCCCC2)cc1 [Compound 22] |  | > 50 µM |  |  | 50 to 74%
24 | C[C@H](NCc1ccccn1)C(=O)NCc1ccc(CNCCCNC2CCCCC2)cc1 [Compound 23] |  | > 50 µM |  |  | 75 to 100%
25 | O=C(NCc1ccc(CNCCCNC2CCCCC2)cc1)[C@H](CO)NCc1ccccn1 [Compound 24] |  | > 50 µM |  |  | 75 to 100%
26 | O=C(NCc1ccc(CNCCCNC2CCCCC2)cc1)[C@H](Cc1ccc2ccccc2c1)NCc1ccccn1 [Compound 25] |  | > 10 µM |  |  | 50 to 74%
27 | O=C(NCc1ccc(CNCCCNC2CCCCC2)cc1)[C@H](Cc1c[nH]c2ccccc12)NCc1ccccn1 [Compound 26] |  | > 50 µM |  |  | 75 to 100%
28 | O=C(NCc1ccc(CNCCCNC2CCCCC2)cc1)[C@H](Cc1ccc(O)cc1)NCc1ccccn1 [Compound 27] |  | > 50 µM |  |  | 50 to 74%
29 | CC(C)C[C@H](NCc1ccccn1)C(=O)NCc1ccc(CNCCCNC2CCCCC2)cc1 [Compound 28] |  | > 50 µM |  |  | 25 to 49%
30 | O=C(NCc1ccc(CNCCCNC2CCCCC2)cc1)[C@@H]1CCCN1Cc1ccccn1 [Compound 29] |  | > 50 µM |  |  | 75 to 100%
31 | O=C(NCc1ccc(CNCCCNC2CCCCC2)cc1)[C@@H]1Cc2ccccc2CN1Cc1ccccn1 [Compound 30] |  | > 20 µM |  |  | 75 to 100%
32 | N=C(N)NCCC[C@H](NC(=O)[C@@H](N)Cc1ccc(O)cc1)C(=O)NCc1ccc(CNCCCNC2CCCCC2)cc1 [Compound 31] |  | > 50 µM |  |  | 75 to 100%
33 | N=C(N)NCCC[C@H](N)C(=O)N[C@@H](Cc1ccc2ccccc2c1)C(=O)NCc1ccc(CNCCCNC2CCCCC2)cc1 [Compound 32] |  | > 50 µM |  |  | 75 to 100%
